In PubChem BioAssay (NCI):
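Values below derive from 48-hour exposures of cells grown in 96-well plates, with endpoints linearly interpolated between the two concentrations bracketing the appropriate inhibition level. Definition used: TGI = concentration required for complete inhibition of growth.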

How the values were obtained:
Assay in all cases: NCI tumour cell line growth inhibition, 48 h
786-0 renal = tested on: 786-0 renal
A549 NSCLC = tested on: A549 NSCLC
ACHN renal = tested on: ACHN renal
CAKI-1 renal = tested on: CAKI-1 renal
CCRF-CEM leukemia = tested on: CCRF-CEM leukemia
COLO 205 colon = tested on: COLO 205 colon
DU-145 prostate = tested on: DU-145 prostate
EKVX NSCLC = tested on: EKVX NSCLC
HCC-2998 colon = tested on: HCC-2998 colon
HCT-116 colon = tested on: HCT-116 colon
HCT-15 colon = tested on: HCT-15 colon
HL-60(TB) leukemia = tested on: HL-60(TB) leukemia
HOP-62 NSCLC = tested on: HOP-62 NSCLC
HOP-92 NSCLC = tested on: HOP-92 NSCLC
HS 578T breast = tested on: HS 578T breast
HT29 colon = tested on: HT29 colon
IGROV1 ovarian = tested on: IGROV1 ovarian
K-562 leukemia = tested on: K-562 leukemia
KM12 colon = tested on: KM12 colon
LOX IMVI melanoma = tested on: LOX IMVI melanoma
M14 melanoma = tested on: M14 melanoma
MALME-3M melanoma = tested on: MALME-3M melanoma
MCF7 breast = tested on: MCF7 breast
MDA-MB-231 breast = tested on: MDA-MB-231 breast
MDA-MB-435 = tested on: MDA-MB-435
MDA-N = tested on: MDA-N
MOLT-4 leukemia = tested on: MOLT-4 leukemia
NCI-H226 lung = tested on: NCI-H226 lung
NCI-H23 lung = tested on: NCI-H23 lung
NCI-H460 lung = tested on: NCI-H460 lung
NCI/ADR-RES ovarian = tested on: NCI/ADR-RES ovarian
OVCAR-3 ovarian = tested on: OVCAR-3 ovarian
OVCAR-4 ovarian = tested on: OVCAR-4 ovarian
OVCAR-5 ovarian = tested on: OVCAR-5 ovarian
OVCAR-8 ovarian = tested on: OVCAR-8 ovarian
PC-3 prostate = tested on: PC-3 prostate
RPMI-8226 leukemia = tested on: RPMI-8226 leukemia
RXF 393 renal = tested on: RXF 393 renal
SF-268 CNS = tested on: SF-268 CNS
SF-295 CNS = tested on: SF-295 CNS
SF-539 CNS = tested on: SF-539 CNS
SK-MEL-2 melanoma = tested on: SK-MEL-2 melanoma
SK-MEL-28 melanoma = tested on: SK-MEL-28 melanoma
SK-MEL-5 melanoma = tested on: SK-MEL-5 melanoma
SK-OV-3 ovarian = tested on: SK-OV-3 ovarian
SN12C renal = tested on: SN12C renal
SNB-19 CNS = tested on: SNB-19 CNS
SNB-75 CNS = tested on: SNB-75 CNS
SR leukemia = tested on: SR leukemia
SW-620 colon = tested on: SW-620 colon
T-47D breast = tested on: T-47D breast
TK-10 renal = tested on: TK-10 renal
U251 CNS = tested on: U251 CNS
UACC-257 melanoma = tested on: UACC-257 melanoma
UACC-62 melanoma = tested on: UACC-62 melanoma
UO-31 renal = tested on: UO-31 renal

Measured: TGI

NCCCc1nonc1C(=O)O
> 100 µM: 786-0 renal | A549 NSCLC | ACHN renal | CAKI-1 renal | CCRF-CEM leukemia | COLO 205 colon | DU-145 prostate | EKVX NSCLC | HCC-2998 colon | HCT-116 colon | HCT-15 colon | HL-60(TB) leukemia | HOP-62 NSCLC | HOP-92 NSCLC | HS 578T breast | HT29 colon | IGROV1 ovarian | K-562 leukemia | KM12 colon | LOX IMVI melanoma | M14 melanoma | MALME-3M melanoma | MCF7 breast | MDA-MB-231 breast | MDA-MB-435 | MDA-N | MOLT-4 leukemia | NCI-H226 lung | NCI-H23 lung | NCI-H460 lung | NCI/ADR-RES ovarian | OVCAR-3 ovarian | OVCAR-4 ovarian | OVCAR-5 ovarian | OVCAR-8 ovarian | PC-3 prostate | RPMI-8226 leukemia | RXF 393 renal | SF-268 CNS | SF-295 CNS | SF-539 CNS | SK-MEL-2 melanoma | SK-MEL-28 melanoma | SK-MEL-5 melanoma | SK-OV-3 ovarian | SN12C renal | SNB-19 CNS | SNB-75 CNS | SR leukemia | SW-620 colon | T-47D breast | TK-10 renal | U251 CNS | UACC-257 melanoma | UACC-62 melanoma | UO-31 renal
